Measurements reported in the NIST ThermoML archive (doi:10.1021/je060382+).
Several values for one entry are separate records, joined by “and”; a condition that tells them apart may be missing. Identical values can stand only once. ± gives the expanded uncertainty stated by the source.

Assays:
[1] = Liquid; for viscosity: Falling or rolling sphere viscometry
[2] = refractive index (Na D-line) (dimensionless); conditions: 293.1 K; 101.33 kPa; Liquid; Standard Abbe refractometry

CC(C)CCCCCCCOC(=O)c1ccccc1C(=O)OCCCCCCCC(C)C
[1]
Conditions | mass density | viscosity
273.15 K, 101.33 kPa | 980.73 ± 0.45 kg/m3 and 980.75 ± 0.11 kg/m3 | 627.6 ± 56 mPa·s and 664.5 ± 60 mPa·s
278.15 K, 101.33 kPa | 977.12 ± 0.12 kg/m3 | 393.5 ± 30 mPa·s and 410.8 ± 32 mPa·s and 410.5 ± 32 mPa·s
283.15 K, 101.33 kPa | 973.48 ± 0.46 kg/m3 and 973.49 ± 0.12 kg/m3 | 255.2 ± 17 mPa·s and 266.8 ± 18 mPa·s
288.15 K, 101.33 kPa | 969.89 ± 0.12 kg/m3 | 170.9 ± 9.8 mPa·s and 178.6 ± 10 mPa·s
293.15 K, 101.33 kPa | 966.37 ± 0.47 kg/m3 and 966.38 ± 0.13 kg/m3 and 966.37 ± 0.13 kg/m3 | 123.5 ± 6.3 mPa·s [middle of 5 runs]
293.15 K, 19400 kPa | – | 202.4 ± 12 mPa·s
293.15 K, 39700 kPa | – | 335 ± 25 mPa·s
293.15 K, 59500 kPa | – | 534.5 ± 45 mPa·s
293.15 K, 103600 kPa | – | 1435.6 ± 160 mPa·s
293.15 K, 118200 kPa | – | 1981.5 ± 250 mPa·s
293.15 K, 118900 kPa | – | 2033.8 ± 260 mPa·s
293.15 K, 159600 kPa | – | 4719.2 ± 720 mPa·s
298.15 K, 101.33 kPa | 962.83 ± 0.47 kg/m3 and 962.84 ± 0.13 kg/m3 | 87.7 ± 4 mPa·s and 84.1 ± 3.8 mPa·s and 88.4 ± 4 mPa·s
298.15 K, 25400 kPa | – | 165.5 ± 9.3 mPa·s
298.15 K, 50700 kPa | – | 300.2 ± 21 mPa·s
298.15 K, 75500 kPa | – | 525 ± 44 mPa·s
298.15 K, 100600 kPa | – | 904.7 ± 89 mPa·s
303.15 K, 101.33 kPa | 959.31 ± 0.48 kg/m3 and 959.29 ± 0.48 kg/m3 and 959.3 ± 0.14 kg/m3 | 65 ± 2.8 mPa·s [middle of 4 runs]
308.15 K, 101.33 kPa | – | 48.9 ± 2.1 mPa·s [middle of 4 runs]
313.15 K, 100 kPa | – | 37.6 ± 3.7 mPa·s and 36.8 ± 3.8 mPa·s
313.15 K, 101.33 kPa | 952.2 ± 0.49 kg/m3 and 952.21 ± 0.14 kg/m3 | 37.5 ± 1.6 mPa·s [middle of 4 runs]
313.15 K, 700 kPa | – | 38.3 ± 1.8 mPa·s
313.15 K, 25000 kPa | – | 65.4 ± 6.3 mPa·s and 63.9 ± 5.3 mPa·s
313.15 K, 25800 kPa | – | 66 ± 2.9 mPa·s
313.15 K, 50000 kPa | – | 109.4 ± 12 mPa·s and 107 ± 12 mPa·s
313.15 K, 50600 kPa | – | 110.3 ± 5.4 mPa·s
313.15 K, 75500 kPa | – | 181 ± 10 mPa·s
313.15 K, 100000 kPa | – | 290 ± 47 mPa·s and 271 ± 44 mPa·s and 273 ± 44 mPa·s
313.15 K, 100300 kPa | – | 291.6 ± 20 mPa·s
313.15 K, 125100 kPa | – | 463.2 ± 37 mPa·s
313.15 K, 150400 kPa | – | 732.6 ± 70 mPa·s
313.15 K, 175800 kPa | – | 1143.6 ± 120 mPa·s
313.15 K, 197600 kPa | – | 1680 ± 200 mPa·s
313.15 K, 200000 kPa | – | 1580 ± 250 mPa·s and 1665 ± 260 mPa·s and 1530 ± 300 mPa·s
313.15 K, 227900 kPa | – | 2671.7 ± 360 mPa·s
313.15 K, 252000 kPa | – | 3750 ± 770 mPa·s and 3932.3 ± 580 mPa·s
313.15 K, 300000 kPa | – | 8110 ± 1700 mPa·s and 7270 ± 1600 mPa·s
313.15 K, 400000 kPa | – | 36300 ± 9800 mPa·s and 33700 ± 9100 mPa·s
313.15 K, 500000 kPa | – | 168000 ± 53000 mPa·s and 158000 ± 49000 mPa·s
313.15 K, 600000 kPa | – | 782000 ± 280000 mPa·s and 694000 ± 250000 mPa·s
313.15 K, 700000 kPa | – | 3820000 ± 1.6e+06 mPa·s and 3410000 ± 1.4e+06 mPa·s
313.15 K, 800000 kPa | – | 2.36e+07 ± 1.1e+07 mPa·s and 1.98e+07 ± 8.7e+06 mPa·s
323.15 K, 101.33 kPa | 945.12 ± 0.5 kg/m3 and 945.13 ± 0.15 kg/m3 | 23 ± 1 mPa·s and 23.7 ± 1 mPa·s
333.15 K, 101.33 kPa | 938.05 ± 0.51 kg/m3 and 938.07 ± 0.16 kg/m3 | 15.9 ± 0.7 mPa·s [middle of 4 runs]
338.15 K, 100 kPa | – | 13.2 ± 1.3 mPa·s and 13.08 ± 1.4 mPa·s
338.15 K, 101.33 kPa | – | 13.3 ± 0.6 mPa·s and 13.2 ± 0.5 mPa·s and 13 ± 0.5 mPa·s
338.15 K, 500 kPa | – | 13.3 ± 0.6 mPa·s
338.15 K, 25000 kPa | – | 20.2 ± 2.3 mPa·s
338.15 K, 30500 kPa | – | 22.7 ± 1 mPa·s
338.15 K, 50000 kPa | – | 30.7 ± 3.8 mPa·s and 31.1 ± 3.8 mPa·s
338.15 K, 60700 kPa | – | 37.8 ± 1.6 mPa·s
338.15 K, 90600 kPa | – | 60.9 ± 2.9 mPa·s
338.15 K, 99500 kPa | – | 70.9 ± 3.4 mPa·s
338.15 K, 100000 kPa | – | 67.7 ± 10 mPa·s and 69.4 ± 9.8 mPa·s
338.15 K, 120500 kPa | – | 96.3 ± 5 mPa·s
338.15 K, 150100 kPa | – | 149.6 ± 8.8 mPa·s
338.15 K, 180400 kPa | – | 229.2 ± 16 mPa·s
338.15 K, 200000 kPa | – | 291 ± 56 mPa·s and 286 ± 53 mPa·s and 299 ± 54 mPa·s
338.15 K, 200600 kPa | – | 307.8 ± 23 mPa·s
338.15 K, 250700 kPa | – | 614.9 ± 58 mPa·s
338.15 K, 275600 kPa | – | 856.5 ± 85 mPa·s
338.15 K, 300000 kPa | – | 1131 ± 260 mPa·s [middle of 4 runs]
338.15 K, 301000 kPa | – | 1203.7 ± 130 mPa·s
338.15 K, 321800 kPa | – | 1571 ± 180 mPa·s
338.15 K, 352700 kPa | – | 2381 ± 310 mPa·s
338.15 K, 370500 kPa | – | 2998.7 ± 410 mPa·s
338.15 K, 394000 kPa | – | 3890 mPa·s
338.15 K, 394400 kPa | – | 4005.5 ± 590 mPa·s
338.15 K, 500000 kPa | – | 14200 ± 5700 mPa·s and 13100 ± 5400 mPa·s
338.15 K, 1000000 kPa | – | 7420000 ± 3e+06 mPa·s and 6141000 ± 2.5e+06 mPa·s
343.15 K, 101.33 kPa | 930.99 ± 0.53 kg/m3 and 931.01 ± 0.16 kg/m3 | 11.2 ± 0.5 mPa·s [middle of 4 runs]
348.15 K, 101.33 kPa | – | 9.63 ± 0.4 mPa·s and 9.65 ± 0.4 mPa·s
348.15 K, 11100 kPa | – | 11.7 ± 0.5 mPa·s
348.15 K, 26500 kPa | – | 15.1 ± 0.6 mPa·s
348.15 K, 52600 kPa | – | 22.9 ± 1 mPa·s
348.15 K, 78900 kPa | – | 33.7 ± 1.4 mPa·s
348.15 K, 81000 kPa | – | 35 ± 1.5 mPa·s
348.15 K, 105700 kPa | – | 49.67 ± 2.1 mPa·s
348.15 K, 124200 kPa | – | 65.18 ± 2.8 mPa·s
348.15 K, 125700 kPa | – | 66 ± 2.8 mPa·s
348.15 K, 149800 kPa | – | 92 ± 4.2 mPa·s
348.15 K, 175700 kPa | – | 130.3 ± 6.7 mPa·s
348.15 K, 202300 kPa | – | 186.52 ± 11 mPa·s
348.15 K, 225400 kPa | – | 250 ± 16 mPa·s
348.15 K, 274700 kPa | – | 467.3 ± 38 mPa·s
348.15 K, 275700 kPa | – | 472.3 ± 38 mPa·s
348.15 K, 324900 kPa | – | 866.8 ± 85 mPa·s
348.15 K, 372500 kPa | – | 1541.5 ± 180 mPa·s
353.15 K, 101.33 kPa | 923.95 ± 0.54 kg/m3 and 923.98 ± 0.17 kg/m3 and 923.97 ± 0.17 kg/m3 | 8.12 ± 0.34 mPa·s and 8.35 ± 0.34 mPa·s
363.15 K, 101.33 kPa | 916.91 ± 0.55 kg/m3 and 916.94 ± 0.18 kg/m3 | –
373.15 K, 100 kPa | – | 4.67 ± 0.59 mPa·s and 4.7 ± 0.59 mPa·s
373.15 K, 25000 kPa | – | 6.73 ± 0.88 mPa·s and 6.86 ± 0.69 mPa·s
373.15 K, 50000 kPa | – | 9.66 ± 1.3 mPa·s and 9.77 ± 1.4 mPa·s
373.15 K, 100000 kPa | – | 18 ± 2.9 mPa·s and 18.5 ± 3 mPa·s
373.15 K, 200000 kPa | – | 56.6 ± 13 mPa·s and 57.8 ± 12 mPa·s
373.15 K, 300000 kPa | – | 163 ± 52 mPa·s and 166 ± 50 mPa·s and 165 ± 50 mPa·s
373.15 K, 400000 kPa | – | 453 ± 200 mPa·s [middle of 4 runs]

Conditions | mass density [kg/m3]
[1], 293.1 K, 101.33 kPa, Vibrating tube method | 967.6 ± 6.5

Conditions | refractive index
[2] | 1.4849 ± 0.0012
